Measured values reported in PMC8400257, “2-Phenoxy-3-Trichloromethylquinoxalines Are Antiplasmodial Derivatives with Activity against the Apicoplast of Plasmodium falciparum” (Pharmaceuticals, 2021).
Entries after “also recorded” stand apart in the source; their conditions may differ.

Key:
[1] = system: quiescent ART-resistant F32-ART5 parasites; assay: Quiescent-stage survival assay (QSA); assay type: cell-based, Plasmodium falciparum; details: F32-ART5, DHA 700 nM 6 h then DHA + 3i 2.5 or 5 µM 48 h
Experimental: Chemosensitivity evaluation of ART-resistant parasites at the quiescent stage was performed on the strain F32-ART5 thanks to the quiescent-stage survival assay (QSA). D-sorbitol synchronized ring-stages parasites at 3% parasitemia (2% hematocrit) were first exposed to 700 nM of dihydroartemisinin (DHA) for 6 h to induce quiescence of artemisinin-resistant parasites. Then, quiescent parasites were exposed or not (as control condition) to the drug to be tested for 48 h. After drug exposure, parasite cultures were washed with RPMI-1640 medium and replaced in normal drug-free culture conditions. The time to parasite recrudescence was determined as the time required to reach the 3% initial parasitemia. […] In each experiment, results obtained with the condition “DHA 6 h/DHA 48 h” were compared to those obtained with the condition “DHA 6 h/(DHA + drug to be tested) 48 h” in order to determine the delay in recrudescence time. […]
3. Studying the effect of (3i) on the liver stage development of P. falciparum Cryopreserved primary human hepatocytes were seeded in 96 well plates with a pre-determined seeding dose that gave a single dense layer of attached hepatocytes. […]
The culture medium with or without drugs was refreshed every 48 hours and two independent plates were studied. […] Plates were subjected to quantification using an automated plate scanner. […]

[2] = system: S. typhimurium strains (TA97a, TA98, TA100, TA102); assay: Ames test; assay type: cell-based, Salmonella typhimurium; details: 48 h; 5 mM and 25 mM, w/o and w/ S9 mix; four S. typhimurium strains
Experimental: Nevertheless, the evaluation of the mutagenicity of compound (3i) was carried out using the Ames test on four S. typhimurium strains at 5 mM and 25 mM (four doses per concentrations: 2, 3, 4, 5 µL/plate for assay without S9 mix and 4, 6, 8, 10 µL/plate for assay with S9 mix).
Compounds were assessed for mutagenicity by a modified version of the liquid incubation assay of the classical Ames test at five concentrations (25–125 nM). Salmonella tester strains (TA97a: Acridine ICR191, TA98: 2,4,7 trinitrofluorenone, TA100: Sodium Azide and TA102: Mitomycine C) as positive control w/o S9 mix and benzo[alpha]pyrene as positive control w/S9 mix) were grown overnight in a nutrient broth n_2 (Oxoid, Dardilly, France). After this period, products dissolved in DMSO (Sigma) were added to 0.1 mL of culture and incubated for 1 h at 37 °C with shaking. Each sample was assayed in duplicate. After incubation, 2 mL of molten top agar were mixed gently with the pre-incubated solution and poured onto Vogel–Bonner minimal agar plates. After 48 h at 37 °C, the number of spontaneous and drug-induced revertants per plate was determined for each dose with a laser bacterial colony counter (laser bacterial colony counter 500A, Interscience). A product was considered mutagenic when it induced a two-fold increase in the number of revertants, compared with the spontaneous frequency (negative control). […]

O=[N+]([O-])c1ccc(Oc2nc3ccccc3nc2C(Cl)(Cl)Cl)cc1 [3i, 2-(4-Nitrophenoxy)-3-trichloromethylquinoxaline]
Activity on quiescent ART-resistant parasites (delay in recrudescence time, QSA) [1]: did not present any activity
Ames test result (mutagenicity) [2]: not genotoxic; also recorded: not mutagenic in vitro; also recorded: negative
